Measurements from US4276890A, “Tobacco smoking inhibitor” (priority 1979, dated 1981).

Experiments:
[1] = tested on: non-smoker volunteers; assay: Non-smoker control volunteers on same regimen; type: in vivo, human (non-smokers); conditions: five non-smokers; in excess of 500 mg per day for several days
Experimental: As a control, five non-smoker volunteers were tested according to the same regimen, receiving varying quantities of ethyl maltol in excess of 500 mg. per day for periods of several days.

[2] = Volatility and storage stability; type: physicochemical
Experimental: The troches were made essentially by conventional candy making techniques. The polysaccharide and starch were first dry blended to substantial uniformity. About 3-4% by weight of water was added to the dry powder to form a thick paste. This paste was then heated to produce a uniform viscous melt. Maltol or ethyl maltol were added to this melt as saturated solutions in boiling water. The water solubility of the gamma pyrones is somewhat limited. For example, one gram of ethyl maltol requires 6 ml of water at 100° C. to dissolve completely. Since the water content of the mixture must be kept low, the amount of ethyl maltol which can be incorporated is about 3-4%, and preferably about 1% by weight of the troche. […] Alternatively, the entire process can be carried out in a suitable pressure apparatus.
A refined, bland chewing gum base, obtained from Adams Sour Apple gum, (Warner-Lambert, Inc., Morris Plains, N.J.) was heated to 45° C. in a 100 gram batch. Ethyl maltol, 300 to 400 mesh, 6.66 grams, was added to the chewing gum base with thorough mixing to provide an even distribution of particles throughout the mass. The mass was then rolled into individual 3 gram sticks and allowed to cool. Alternatively, the mass was rolled as a single thin rectangular slab, allowed to cool, then cut into 3 gram sticks. […] Each 3 gram stick contains 200 mg of ethyl maltol.

[3] = tested on: hexobarbital-induced sleeping time; conditions: 300 to 500 mg per kg; cited from earlier work
[4] = tested on: smoking habit of smokers; assay: Single dose response in smokers (Example 3); type: in vivo, human (volunteer smokers)
Experimental: The effect of a single dose of ethyl maltol in the range from 100 mg to 1,200 mg was tested on thirty volunteer subjects who were smokers. As a control, an additional ten smokers were given an inert placebo, a similar candy or gum laced with ascorbic acid and citric acid to impart a medicinal flavor. […] The threshold of effectiveness varied with the individual's age, sex, weight, smoking history, and habits. […] These studies established the existence of a critical threshold dose level below which the effectiveness of ethyl maltol as a tobacco smoking inhibitor was not observed. In subsequent tests where the gamma pyrone was administered in a dose series extending over several days, daily doses of less than about 300 mg per day were similarly ineffective.

[5] = per day; cited from earlier work
[6] = tested on: tobacco consumption of habitual smokers; assay: General observations of treatment on tobacco consumption and subjective effects; type: in vivo, human (test subjects
Excerpt: In a preferred embodiment, finely divided ethyl maltol is distributed in a chewing gum base, which when chewed by the subject, results in a gradual release of ethyl maltol into the oral cavity. When administered in appropriate amounts over a period of several days, there results a gradual decrease in the number of cigarettes smoked and the length of time they are smoked. […] Reductions in the frequency and quantity of smoking have been observed in test subjects who were unaware that their smoking behavior was monitored. […] Subjectively, test subjects experience a reduced desired to smoke, tend to neglect the opportunities to light up a cigarette and tend to leave cigarettes unsmoked in the ashtray after a few puffs. The effect is sufficiently subtle that a smoker is sometimes unaware that their tobacco consumption rate was decreased until such point as the lowered consumption rate becomes obvious. For smokers sincerely desiring to reduce or eliminate their smoking, the effect of the treatment is most gratifying. However, for smokers who are not psychologically committed to giving up smoking, the effects may be alarming. It is of course, possible to override the effects of the treatment by conscious effort to smoke at the pre-treatment rate.
Smoking behavior is complex and includes cigarette, pipe and cigar smoking. Both from the standpoint of habituation and of health hazard, cigarette smoking is considered to be the most serious. It is contemplated that the treatment method described herein will be effective to inhibit all forms of smoking behavior and combinations thereof, involving the consumption of tobacco. For convenience, the ensuing discussion focuses on cigarette smoking, as exemplary of smoking behavior in general. Tobacco consumption is a function the number of cigarettes smoked and the proportion of each cigarette smoked. Reduction of consumption is measured by comparison with a smoker's pretreatment consumption rate. All data used herein are expressed as percent reduction, i.e., the differential between pretreatment and current smoking consumption rate divided by the pretreatment rate, times 100. All rates are calculated to take into account both the number of cigarettes smoked and the proportion of each smoked.
Duration of treatment may be as little as ten days, preferably 20 to 30 days. As might be expected with a complex behavior such as smoking, where psychological and social factors play a major role in addition to individual variations in nicotine susceptibility and responsiveness to gamma pyrone, the rate of smoking reduction during treatment is highly variable. Typically, a gradual reduction to about 50% to the pretreatment rate is observed over the first four to six days. Frequently, little or no reduction is observed for the first two days, although occasionally a dramatic reduction is observed almost immediately. In the ensuing seven to ten days, further reductions, typically 70 to 100%, are observed. Reduction below the 50% level in the first 3-5 days is sometimes accompanied by the physiological (but not psychological) symptoms of nicotine withdrawl, such as vertigo, alimentary distress, diuresis, scotoma and disorientation. Such symptoms have never been observed in non-smoking control subjects using the same gamma pyrone dosages. […] The entire course of treatment is therefore extended somewhat, preferably to about 20 to 30 days total. […]

[7] = tested on: rat brain cortex slices; conditions: in vitro; cited from earlier work

CCc1occc(=O)c1O [ethyl maltol, 3-hydroxy-2-ethyl-4-pyrone]
psychological or physiological effects [1]: no psychological or physiological effects
volatility ([2]; especially at elevated temperatures): volatile, especially at elevated temperatures
storage loss ([2]; unwrapped gum, room temperature): storage loss of ethyl maltol due to sublimation at room temperature
hexobarbital-induced sleeping time [3]: potentiating hexobarbital-induced sleeping time
threshold dose, chewing gum versus tablet ([4]; chewing gum over ten to fifteen minutes versus tablet): somewhat lower
reaction to cigarettes ([4]; single dose greater than 300 mg): immediate overt negative reaction to cigarettes
duration of substantially reduced level of smoking ([4]; single dose greater than 500 mg): a few hours to two days
desire to smoke cigarettes ([4]; single dose greater than 500 mg, substantially all individuals): a definitive result of reduced desire to smoke cigarettes
effect of dose greater than 1,200 mg ([4]; single dose greater than 1,200 mg): no addition advantage
effect on smoking ([4]; single dose of less than 300 mg): no definitive effect
effect of increasing dose ([4]; single dose up to about 1,200 mg): Increased effectiveness
physiological symptoms of nicotine withdrawal ([4]; single dose, some subjects): For some subjects, physiological symptoms of nicotine withdrawal were noted
safe average daily intake [5]: 2 mg per kg
tobacco consumption of habitual smokers ([6]; appropriate dosage levels and rates): significantly reduces the tobacco consumption of habitual smokers
onset of reduced cigarette consumption ([6]; day of treatment): about the second or third day of treatment
symptoms of nicotine withdrawal ([6]; treatment over several days): does not appear to be accompanied by the typical symptoms of nicotine withdrawal
oxygen intake by rat brain cortex slices [7]: not affected
